The results in this text go back to patent publication USRE48461E1, “Modulation of androgen receptor expression” (Ionis Pharmaceuticals, Inc., priority 2012, dated 2021).

Oligonucleotides are written 5' to 3', each unit as a sugar letter and its base; * is a phosphorothioate linkage, no mark a phosphodiester; rarer units and linkages stand in square brackets, end groups in braces. Plain capitals give the bases only. k = constrained ethyl (cEt); [5mC] = 5-methylcytosine; d = 2'-deoxy (DNA)

Series [1] concerns AR mRNA. The experiment in a line: AR mRNA in C4-2B cells by free uptake (hAR_LTS00943). Type of series: cell-based, human. The conditions noted are these: 24 hrs; for Percent inhibition of AR full-length mRNA: free uptake. The procedure: (§1) Cells were plated at a concentration of 1,000 cells/well in 96-well plates to measure cell proliferation, and at 4,000 cells/well to measure target reduction. ISIS 549458, ISIS 549372, ISIS 549434, and ISIS 554221 were added individually at 0.04 μM, 0.20 μM, 1.00 μM, or 5.00 μM. After an incubation period of 24 hrs, mRNA levels were measured using hAR_LTS00943.

In series [2] the test system is full-length AR. As to the kind of experiment: Western blot of full-length AR in MDV3100-resistant C4-2B cells. The class given is cell-based, human. The note with it: C4-2B MR cells (Example 16). How it is done:
ISIS 549372, ISIS 549434, and ISIS 554221 at 1 μM concentration of antisense oligonucleotide were each added to the culture media at 1 μM concentration for free uptake by the cells. After a treatment period of 2 days, cells were harvested in RIPA buffer containing protease inhibitors. The presence of bands for full-length AR, as well as the variant form, AR-V7, was detected by western blot using AR antibody (N-20, Santa Cruz).
Western analysis of full-length AR, as well as the AR-V7 variant, was also conducted in a manner similar to the assay described above.

In series [3] the test system is KLK3 mRNA. The experiment in a line: KLK3 mRNA (AR target gene) in C4-2B MR cells. Type of series: cell-based, human. The conditions noted are these: C4-2B MR cells, 0.04-5.00 μM.
Series [4] deals with AR full-length mRNA. As to the kind of experiment: AR full-length mRNA in CWR22-RV1 cells (RNAiMax, RTS3559). The note with it: 6 days. Type of series: cell-based, human. How it is done:
(§2) CWR22-RV1 cells were plated and transfected using RNAiMax reagent (Life Technologies) with ISIS oligonucleotides at 1.7 nM, 5.0 nM, 16.7 nM, or 50 nM concentrations. ISIS 347526 was included as a negative control. After a treatment period of 6 days, the target reduction and proliferative capacity of the cancer cells was measured.
(§3) Antisense inhibition of AR full-length mRNA was measured with the RTS3559 primer probe set. The results are presented in Table 63 as percent inhibition relative to non-treated cells. The reduction in V7 splice variant of the AR mRNA was also measured by RT-PCR using SYBR Green staining (Hu, R. et al., Cancer Res. 2009. 69: 16-22). The results are presented in Table 64, as percent reduction, relative to non-treated cells. Cell proliferation was measured with CellTiter 96® AQueous One Solution Cell Proliferation kit (Promega), following the manufacturer's instructions. Results are presented in Table 65 as percent inhibition of proliferation, relative to non-treated cells.

Series [5] relates to KLK2 mRNA. The experiment in a line: KLK2 mRNA (AR target gene) in C4-2B MR cells. Type of series: cell-based, human. The note with it: C4-2B MR cells, 0.04-5.00 μM.
The subject of series [6] is V7 splice variant of the AR mRNA. The experiment in a line: AR V7 splice variant mRNA in CWR22-RV1 cells (RT-PCR SYBR Green). The conditions noted are these: RNAiMax, 6 days. Type of series: cell-based, human. The procedure:
as §2, §3

Series [7] deals with C4-2B MR cells. The experiment in a line: Proliferation of MDV3100-resistant C4-2B cells (CellTiter 96). The conditions noted are these: 0.04-5.00 μM, 6 days. The class given is cell-based, human. How it is done:
ISIS 549372, ISIS 549434, ISIS 549458, and ISIS 554221 were each added to the culture media at 0.04 μM, 0.20 μM, 1.00 μM, and 5.00 μM concentration of antisense oligonucleotide. ISIS 347526 was included as a negative control. After a treatment period of 6 days, the proliferative capacity of the cancer cells was measured with using CellTiter 96® AQueous One Solution Cell Proliferation kit (Promega), following the manufacturer's instructions. Results are presented in Table 41 as percent inhibition of proliferation, relative to non-treated cells.

Series [8] has as its system total AR mRNA. As to the kind of experiment: Total (full-length) AR mRNA in C4-2B MR cells, free uptake. Type of series: cell-based, human. The note with it: C4-2B MR cells, 0.04-5.00 μM free uptake, 24 hrs. The procedure:
Cells were plated at a density of 40,000 cells per well in 96-well plates and cultured in RPMI1640 medium with 10% fetal bovine serum. […] ISIS 549372, ISIS 549458, ISIS 549434, and ISIS 554221 were each added at 0.04 μM, 0.20 μM, 1.00 μM, and 5.00 μM concentrations of antisense oligonucleotide to culture media for free uptake by the cells. […] After a treatment period of 24 hrs, total AR mRNA levels were measured by quantitative real-time PCR using primer probe set RTS3559.

Series [9] concerns C4-2B cells. As to the kind of experiment: C4-2B cell proliferation by free uptake (MTT). Type of series: cell-based, human. The conditions noted are these: day 6. How it is done: as §1
On day 6, cells plated for measuring proliferation were incubated with MTT reagent until the development of color. Color intensity was measured using a spectrophotometer at 490 nm.

Series [10] relates to CWR22-RV1 cells. The experiment in a line: CWR22-RV1 cell proliferation (CellTiter 96). Type of series: cell-based, human. The conditions noted are these: RNAiMax, 6 days. The procedure: as §2, §3
For series [11] the following is noted: cynomolgus monkey, in vivo, sc, 40 mg/kg.
For series [12] the following is noted: cynomolgus monkey, in vivo, sc, 40 mg/kg. This is another data set of the same source.
Method: (§4) Prior to the study, the monkeys were kept in quarantine for a 30-day period, during which the animals were observed daily for general health. The monkeys were 2-4 years old and weighed between 2 and 4 kg. Thirteen groups of four randomly assigned male cynomolgus monkeys each were injected subcutaneously with ISIS oligonucleotide or PBS. PBS solution or ISIS oligonucleotides, at a dose of 40 mg/kg, were administered with a loading regimen consisting of four doses on the first week of the study (days 1, 3, 5, and 7), followed by a maintenance regimen consisting of once weekly administration starting on Day 14 (weeks 2 to 6). Subcutaneous injections were performed in clock-wise rotations at 4 sites on the back; one site per dose. The injection sites were delineated by tattoo, while sedated using ketamine, and were separated by a minimum of 3 cm.
To evaluate any effect of ISIS oligonucleotides in cynomolgus monkeys on hematologic parameters, blood samples of approximately 0.5 mL of blood was collected day 44 from each of the available study animals in tubes containing K2-EDTA. Samples were analyzed for red blood cell (RBC) count, white blood cells (WBC) count, platelet count, hemoglobin content and hematocrit, using an ADVIA2120i hematology analyzer (SIEMENS, USA).
The conditions of series [13]: cynomolgus monkey, in vivo, sc, 40 mg/kg. The source holds these as a separate data set.
Method: as §4
Kidney function was also assessed by urinalysis. Fresh urine from all animals was collected on day 44 using a clean cage pan on wet ice. Food was removed overnight the day before fresh urine collection was done but water was supplied. The total protein and creatinine levels were measured using a Toshiba 120FR NEO automated chemistry analyzer (Toshiba Co., Japan) and the protein to creatinine ratio was calculated.
For series [14] the following is noted: cynomolgus monkey, in vivo, sc, 40 mg/kg. The source holds these as a separate data set.
Method: The monkeys were 2-4 years old and weighed between 2 and 4 kg. Thirteen groups of four randomly assigned male cynomolgus monkeys each were injected subcutaneously with ISIS oligonucleotide or PBS. PBS solution or ISIS oligonucleotides, at a dose of 40 mg/kg, were administered with a loading regimen consisting of four doses on the first week of the study (days 1, 3, 5, and 7), followed by a maintenance regimen consisting of once weekly administration starting on Day 14 (weeks 2 to 6). Subcutaneous injections were performed in clock-wise rotations at 4 sites on the back; one site per dose. The injection sites were delineated by tattoo, while sedated using ketamine, and were separated by a minimum of 3 cm.
To evaluate any inflammatory effect of ISIS oligonucleotides in cynomolgus monkeys, the monkeys were fasted overnight. Approximately, 1.5 mL of blood samples were collected from all the study groups on day 44. Blood was collected in tubes without anticoagulant for serum separation. The tubes were kept at room temperature for a minimum of 90 min and then centrifuged at 3,000 rpm for 10 min. C-reactive protein (CRP), which is synthesized in the liver and which serves as a marker of inflammation, was measured on day 43 using a Toshiba 120FR NEO chemistry analyzer (Toshiba Co., Japan). Complement C3 was also measured similarly, and the data is presented as a percentage of baseline values.
For series [15] the following is noted: cynomolgus monkey, in vivo, sc, 40 mg/kg. The source holds these as a separate data set.
For series [16] the following is noted: cynomolgus monkey, in vivo, sc, 40 mg/kg. This is another data set of the same source.
Method: as §4
To evaluate the effect of ISIS oligonucleotides on hepatic function, the monkeys were fasted overnight. Approximately, 1.5 mL of blood samples were collected on day 44 from all the study groups. Blood was collected in tubes without anticoagulant for serum separation. The tubes were kept at room temperature for a minimum of 90 min and then centrifuged at 3,000 rpm for 10 min. Levels of various liver function markers were measured using a Toshiba 120FR NEO chemistry analyzer (Toshiba Co., Japan).

On to “CTAAACTTCCCGTGGC (k[5mC]*kT*kA*dA*dA*d[5mC]*dT*dT*d[5mC]*d[5mC]*d[5mC]*dG*dT*kG*kG*k[5mC]) [ISIS 549434, targets 3'-end of exon 8]”, for which the “AR mRNA expression” value in [1] (free uptake 0.04-5.00 μM) is “inhibited AR mRNA expression more potently than ISIS 554221”. The “Percent inhibition of AR full-length mRNA” value in series [1] (dose 0.04 μM) was 10%; in series [1] (dose 0.20 μM) it was 35%; in series [1] (dose 1.00 μM) it was 52%; in [1] (dose 5.00 μM), 55%; in series [4] (dose 5.0 nM), 46%; in [4] (dose 16.7 nM) it was 69%. Besides, in [4] (dose 50.0 nM), the “Percent inhibition of AR full-length mRNA” value is listed as 86%. In addition, in series [2], the “levels of full-length AR (Western analysis)” value is “reduced levels of full-length AR”. Also, in series [3], the “AR target gene KLK3 mRNA levels” value was “reduced target gene levels in a dose dependent manner more extensively than treatment with ISIS 554221”. In addition, the “AR target gene KLK2 mRNA levels” value in [5] is recorded as “reduced target gene levels in a dose dependent manner more extensively than treatment with ISIS 554221”. For the same substance, the entries for the “Percent inhibition of AR splice variant, V7” value in [6] (dose 5.0 nM), in [6] (dose 16.7 nM) and in series [6] (dose 50.0 nM) were 20%, 4% and 23%, respectively. Also, the “proliferation of C4-2B MR cells” value in series [7] was “reduced proliferation of the cells in a dose dependent manner more extensively than treatment with ISIS 554221”. In addition, the “total AR transcript levels” value in series [8] is given as “reduced total AR transcript levels in a dose dependent manner more extensively than treatment with ISIS 554221”. Besides, the “Percent inhibition of cell proliferation” value stood at 0% in series [9] (dose 0.04 μM); 14% in [9] (dose 0.20 μM); 35% in series [9] (dose 1.00 μM); 37% in series [9] (dose 5.00 μM); 15% in series [10] (dose 5.0 nM); 13% in series [10] (dose 16.7 nM). In series [10] (dose 50.0 nM), the “Percent inhibition of cell proliferation” value stood at 38%.
Consider “ISIS 584149: antisense compound targeted to human AR (GTCAATATCAAAGCAC; 3-10-3 (S)-cEt gapmer, further chemistry not given here)”, for which, in [11], the “Body Wt” value came out at 2.5 kg, the Heart weight is 9.3 g, the Kidney weight amounted to 13 g and the Liver weight is given as 60 g. Further, in [11], the “Mesenteric lymph nodes weight” value came to 2.1 g and the Spleen weight is on record as 2.2 g. In series [12], the HCT is listed as 45%, the Hemoglobin was determined as 13.7 g/dL, the Platelets turned out to be 478000 µL and the RBC stood at 5.7e+06 µL. Moreover, the WBC in series [12] was found to be 11300 µL. Moreover, the Urine protein/creatinine ratio in series [13] was determined as 0.01. For the same substance, in series [14], the “C3 (% of baseline)” value was 110 % of baseline and the CRP amounted to 1.7 mg/dL. In series [15], the “Plasma BUN” value worked out at 26.4 mg/dL and the “Plasma Creatinine” value is 0.85 mg/dL. In series [16], the ALT stood at 57 IU/L, the AST was found to be 58 IU/L and the Albumin was 4.5 g/dL.
Take “GATTTAATGGTTGCAA (cEt gapmer chemistry, further chemistry not given here) [ISIS 586124]”: in series [11], the “Body Wt” value came out at 2.5 kg, the Heart weight is on record as 9.4 g, the Kidney weight amounted to 14 g and the Liver weight was found to be 58 g. Moreover, in series [11], the “Mesenteric lymph nodes weight” value stood at 2.8 g and the Spleen weight turned out to be 3.3 g. In [12], this substance returned an HCT of 45%, a Hemoglobin of 13.6 g/dL, a Platelets of 391000 µL and an RBC of 5.8e+06 µL. Further, the WBC in series [12] was 10400 µL. The Urine protein/creatinine ratio in [13] was 0.01. Also, in series [14], the “C3 (% of baseline)” value was 93 % of baseline and the CRP came out at 4.0 mg/dL. Further, in series [15], the “Plasma BUN” value is 23.8 mg/dL and the “Plasma Creatinine” value came to 0.87 mg/dL. Moreover, in series [16], the ALT turned out to be 56 IU/L, the AST stood at 94 IU/L and the Albumin is on record as 3.9 g/dL.
In the case of “ISIS 583918: antisense compound targeted to human AR (AGTCGCGACTCTGGTA; 3-10-3 (S)-cEt gapmer, further chemistry not given here)”, in [11], the “Body Wt” value was determined as 2.5 kg, the Heart weight turned out to be 8.9 g, the Kidney weight came to 12 g and the Liver weight was 60 g. In [11], the “Mesenteric lymph nodes weight” value is 3.5 g and the Spleen weight turned out to be 4.6 g. In [12], this substance registered an HCT of 46%, a Hemoglobin of 13.3 g/dL, a Platelets of 435000 µL and an RBC of 5.8e+06 µL. In series [12], this substance registered a WBC of 12700 µL. In addition, the Urine protein/creatinine ratio in [13] is 0.01. In addition, in [14], the “C3 (% of baseline)” value is 89 % of baseline and the CRP is listed as 3.5 mg/dL. For the same substance, in [15], the “Plasma BUN” value is on record as 24.5 mg/dL and the “Plasma Creatinine” value is given as 0.87 mg/dL. In [16], this substance had an ALT of 75 IU/L, an AST of 73 IU/L and an Albumin of 4.1 g/dL.
As for “ISIS 584163: antisense compound targeted to human AR (GAACATTATTAGGCTA; 3-10-3 (S)-cEt gapmer, further chemistry not given here)”, in series [11], the “Body Wt” value came to 2.5 kg, the Heart weight stood at 8.4 g, the Kidney weight is recorded as 15 g and the Liver weight was 54 g. Further, in [11], the “Mesenteric lymph nodes weight” value came out at 3.3 g and the Spleen weight amounted to 3.2 g. Also, in [12], the HCT is 44%, the Hemoglobin turned out to be 12.8 g/dL, the Platelets was 461000 µL and the RBC turned out to be 5.5e+06 µL. In addition, in series [12], the WBC was determined as 9100 µL. The Urine protein/creatinine ratio in series [13] was 0.01. Besides, in series [14], the “C3 (% of baseline)” value was 102 % of baseline and the CRP came to 1.0 mg/dL. Further, in series [15], the “Plasma BUN” value was 22.4 mg/dL and the “Plasma Creatinine” value is recorded as 0.82 mg/dL. Besides, in [16], the ALT is 50 IU/L, the AST is listed as 68 IU/L and the Albumin is given as 4.2 g/dL.
